From US20040049056A1 (priority 2000, published 2004) come the findings set out here.

Data set [1] has as its system plant pathogenic fungi. As to the kind of experiment: Assay for antifungal activity of esculetin compounds (method similar to Assay example 1). It counts as cell-based. An excerpt: The activities of the following esculetin compounds was confirmed by a method similar to Assay example 1.
Data set [2] concerns plants. As to the kind of experiment: Assay for herbicidal activity of esculetin compounds (method similar to Assay example 2). Format: in vivo. An excerpt:
The activities of the following esculetin compounds was confirmed by a method similar to Assay example 2.

In data set [3] the test system is Pyricularia oryzae. Format: cell-based.
In data set [4] the test system is Fusarium nivale. Format: cell-based.
Data set [5] deals with Septoria tritici. It counts as cell-based.
For data set [6], the system named is Pythium aphanidermatum. It counts as cell-based.
For data set [7], the system named is Pytophthora infestans. Format: cell-based.

Like-named read-outs stand apart in the source and are kept apart here.

Turning to `O=c1ccc2cc(O)c(OCc3ccccc3)cc2o1` [7-benzyloxy-6-hydroxycoumarin], in data set [1], the Antifungal activity entry was “confirmed”. Moreover, in data set [2], the Herbicidal activity result was “confirmed”.
As for `Oc1ccc(O)c(OCc2ccccc2)c1` [Compound (a), 2-benzyloxy-1,4-hydroquinone], the “Rate of growth suppression (%) P.o” value in data set [3] is listed as “++ (key: −: less than 10%; +: 10 to 60%; ++: more than 60%)”. The “Rate of growth suppression (%) F.niv” value in data set [4] is “+ (key: −: less than 10%; +: 10 to 60%; ++: more than 60%)”. Besides, the “Rate of growth suppression (%) S.t” value in data set [5] is “+ (key: −: less than 10%; +: 10 to 60%; ++: more than 60%)”. The “Rate of growth suppression (%) P.a” value in data set [6] is reported as “+ (key: −: less than 10%; +: 10 to 60%; ++: more than 60%)”. Further, the “Rate of growth suppression (%) P.i” value in data set [7] is “+ (key: −: less than 10%; +: 10 to 60%; ++: more than 60%)”.
For the compound `O=Cc1cc(O)c(OCc2ccccc2)cc1O` [Compound (b), 2,5-dihydroxy-4-benzyloxybenzaldehyde], in data set [3] (10 mg/L, 3 DAT), the “Rate of growth suppression (%) P.o” value is reported as “+ (10 to 60%)”. Moreover, the “Rate of growth suppression (%) F.niv” value in data set [4] is listed as “++ (key: −: less than 10%; +: 10 to 60%; ++: more than 60%)”. The “Rate of growth suppression (%) S.t” value in data set [5] is “+ (key: −: less than 10%; +: 10 to 60%; ++: more than 60%)”. Besides, the “Rate of growth suppression (%) P.a” value in data set [6] is on record as “++ (key: −: less than 10%; +: 10 to 60%; ++: more than 60%)”. Also, in data set [7] (10 mg/L, 4 DAT), the “Rate of growth suppression (%) P.i” value is listed as “+ (10 to 60%)”.
As for `CC(=O)Oc1cc(OCc2ccccc2)c(OC(C)=O)cc1C=O` [Compound (c), 2,5-diacetoxy-4-benzyloxybenzaldehyde], the “Rate of growth suppression (%) P.o” value in data set [3] (10 mg/L, 3 DAT) is on record as “+ (10 to 60%)”. Moreover, the “Rate of growth suppression (%) F.niv” value in data set [4] is given as “++ (key: −: less than 10%; +: 10 to 60%; ++: more than 60%)”. Further, the “Rate of growth suppression (%) S.t” value in data set [5] is “++ (key: −: less than 10%; +: 10 to 60%; ++: more than 60%)”. In data set [6], the “Rate of growth suppression (%) P.a” value was “+ (key: −: less than 10%; +: 10 to 60%; ++: more than 60%)”. For the same compound, in data set [7] (10 mg/L, 4 DAT), the “Rate of growth suppression (%) P.i” value was “+ (10 to 60%)”.
As for `O=Cc1cc2c(cc1O)OCO2` [Compound (d), 4,5-methylenedioxysalicylaldehyde], the melting point lay within 125 to 126 °C. Further, the “Rate of growth suppression (%) P.o” value in data set [3] is reported as “+ (key: −: less than 10%; +: 10 to 60%; ++: more than 60%)”. The “Rate of growth suppression (%) F.niv” value in data set [4] is recorded as “+ (key: −: less than 10%; +: 10 to 60%; ++: more than 60%)”. Further, the “Rate of growth suppression (%) S.t” value in data set [5] is on record as “+ (key: −: less than 10%; +: 10 to 60%; ++: more than 60%)”. Moreover, the “Rate of growth suppression (%) P.a” value in data set [6] was “+ (key: −: less than 10%; +: 10 to 60%; ++: more than 60%)”. Further, the “Rate of growth suppression (%) P.i” value in data set [7] is “+ (key: −: less than 10%; +: 10 to 60%; ++: more than 60%)”.
`CC1(C)Oc2cc(O)c(C=O)cc2O1` [Compound (e), 2,2-dimethyl-5-formyl-6-hydroxy-1,3-benzodioxol]: the melting point lay within 104 to 105 °C. The “Rate of growth suppression (%) P.o” value in data set [3] (10 mg/L, 3 DAT) is recorded as “+ (10 to 60%)”. Besides, the “Rate of growth suppression (%) F.niv” value in data set [4] was “+ (key: −: less than 10%; +: 10 to 60%; ++: more than 60%)”. In addition, the “Rate of growth suppression (%) S.t” value in data set [5] is listed as “+ (key: −: less than 10%; +: 10 to 60%; ++: more than 60%)”. In data set [6], the “Rate of growth suppression (%) P.a” value is “+ (key: −: less than 10%; +: 10 to 60%; ++: more than 60%)”. In addition, in data set [7] (10 mg/L, 4 DAT), the “Rate of growth suppression (%) P.i” value was “+ (10 to 60%)”.
Take `CC1(C)Oc2cc3ccc(=O)oc3cc2O1` [esculetin acetonide]: the Antifungal activity result in data set [1] was “confirmed”. In data set [2], the Herbicidal activity entry is recorded as “confirmed”.
For the compound `O=c1ccc2cc3c(cc2o1)OCO3` [methylenedioxycoumarin], the Antifungal activity entry in data set [1] is on record as “confirmed”. In addition, the Herbicidal activity result in data set [2] was “confirmed”.
